Consider two molecules from US20240092768A1, “CRYSTAL FORM OF ANTI-INFLUENZA VIRUS COMPOUND, PREPARATION METHOD FOR CRYSTAL FORM, AND USE OF CRYSTAL FORM” (XIZANG HAISCO PHARMACEUTICAL CO., LTD., priority 2021, published 2024).

What is called EC50 is the concentration that produces a half-maximal response. Low readings indicate higher potency in that assay, high ones lower potency in that assay.

The subject of one data set is IFVA/Weiss/43. Nature of the data set: cytopathic effect (CPE) antiviral assay in MDCK cells, IFVA/Weiss/43. To be noted: 120 h, CPE method, 5 days, CCK-8 cell viability. It is filed as cell-based, influenza viruses. A general note: Damage to the host cells serves as the signal in cytopathic effect assays.
The subject of the next data set is IFV A/PR/8/34. The experiment in a line: cytopathic effect (CPE) antiviral assay in MDCK cells, IFV A/PR/8/34. It is filed as cell-based, influenza viruses. The note with it: 120 h, CPE method, 5 days, CCK-8 cell viability.
A short description of data set [1]: hygroscopicity experiment, dynamic vapor sorption (DVS). It is filed as physicochemical. The note with it: 25° C.
In a further data set the test system is IFVA/Mal/302/54. The experiment in a line: cytopathic effect (CPE) antiviral assay in MDCK cells, IFVA/Mal/302/54. Format: cell-based, influenza viruses. To be noted: 120 h, CPE method, 5 days, CCK-8 cell viability.
The nature of data set [2]: experiment of crystal form transformation in water. It is filed as physicochemical. To be noted: room temperature, stirring of magma for 7 days, XRPD.

With `Cc1nnn([C@@H](c2ccccc2)C2CCN(C(=O)c3cc(-c4nc5cc(NC(=O)[C@@H]6C[C@@H]6F)ccc5o4)ccn3)CC2)n1` [Compound A, (1S,2S)-2-fluoro-N-(2-(2-(4-((R)-(5-methyl-2H-tetrazol-2-yl)(phenyl)methyl)piperidine-1-carbonyl)pyridin-4-yl)benzo[d]oxazol-5-yl)cyclopropane-1-carboxamide], the EC50 in the data set with IFVA/Weiss/43 amounted to 3 nM; in the data set on IFV A/PR/8/34 it was 12 nM; in the data set on IFVA/Mal/302/54, 14 nM. Further, the “weight change in a range of 0% RH to 80% RH” value in data set [1] (listed as amorphous form of the compound A) was “approximately 3.8%”.

With `Cc1nnn([C@@H](c2ccccc2)C2CCN(C(=O)c3cc(-c4nc5cc(NC(=O)[C@@H]6C[C@@H]6F)ccc5o4)ccn3)CC2)n1` [crystal form I, (1S,2S)-2-fluoro-N-(2-(2-(4-((R)-(5-methyl-2H-tetrazol-2-yl)(phenyl)methyl)piperidine-1-carbonyl)pyridin-4-yl)benzo[d]oxazol-5-yl)cyclopropane-1-carboxamide], the “crystal form after stirring of magma in water” value in data set [2] is reported as “remained unchanged after the magma”. Also, the “weight change in a range of 0% RH to 80% RH” value in data set [1] is recorded as “approximately 0.3%”.
